Source: PubChem BioAssay (NCI)
“And” between values parts separate entries of the source, which are not always exact repeats. Equal values may be shown once.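 How tested: cells in 96-well plates exposed to compound for 48 hours at five concentrations. GI50 = concentration required for 50% inhibition of growth. TGI: concentration producing complete growth inhibition.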

Tests used:
Test in all cases: NCI anticancer screen, dose series, 48 h
SK-MEL-2 melanoma = system: SK-MEL-2 melanoma
HT29 colon = system: HT29 colon
SK-OV-3 ovarian = system: SK-OV-3 ovarian
OVCAR-8 ovarian = system: OVCAR-8 ovarian
HOP-62 NSCLC = system: HOP-62 NSCLC
NCI-H522 lung = system: NCI-H522 lung
SNB-19 CNS = system: SNB-19 CNS
A549 NSCLC = system: A549 NSCLC
DU-145 prostate = system: DU-145 prostate
EKVX NSCLC = system: EKVX NSCLC

## CNCCCn1cc(C2=C(c3cn(C)c4ccccc34)C(=O)NC2=O)c2ccccc21
SK-MEL-2 melanoma
  GI50: 4.3 µM
  TGI: 8.52 µM
HT29 colon
  GI50: 1.14 µM
  TGI: 12.2 µM
SK-OV-3 ovarian
  GI50: 4.26 µM
  TGI: 22.5 µM
OVCAR-8 ovarian
  GI50: 4.99 µM
  TGI: 12.6 µM
HOP-62 NSCLC
  GI50: 5.59 µM
  TGI: 13.4 µM
NCI-H522 lung
  GI50: 4.01 µM
  TGI: 8.71 µM
SNB-19 CNS
  GI50: 6.29 µM
  TGI: 22.7 µM
A549 NSCLC
  GI50: 4.09 µM
  TGI: 10.8 µM
DU-145 prostate
  GI50: 5.35 µM
  TGI: 16.1 µM

## Clc1ccc2c(NCCCNc3nccc(Nc4ccc(Br)cc4)n3)ccnc2c1
SK-MEL-2 melanoma
  GI50: 2.1 µM
  TGI: 3.67 µM
HT29 colon
  GI50: 1.26 µM
  TGI: 2.67 µM
SK-OV-3 ovarian
  GI50: 1.55 µM
  TGI: 2.91 µM
NCI-H522 lung
  GI50: 1.93 µM
  TGI: 3.52 µM
SNB-19 CNS
  GI50: 1.75 µM
  TGI: 3.32 µM
A549 NSCLC
  GI50: 1.78 µM
  TGI: 3.52 µM
DU-145 prostate
  GI50: 1.86 µM
  TGI: 3.31 µM

## O=C(Nc1ccc(OS(=O)(=O)c2ccccc2)cc1)C12CC3CC(CC(C3)C1)C2
SK-MEL-2 melanoma
  GI50: > 100 µM
  TGI: > 100 µM
HT29 colon
  GI50: 0.403 µM
  TGI: 3.69 µM
SK-OV-3 ovarian
  GI50: > 100 µM
  TGI: > 100 µM
OVCAR-8 ovarian
  GI50: > 100 µM
  TGI: > 100 µM
HOP-62 NSCLC
  GI50: > 100 µM
  TGI: > 100 µM
NCI-H522 lung
  GI50: 4.36 µM
  TGI: > 100 µM
SNB-19 CNS
  GI50: > 100 µM
  TGI: > 100 µM
A549 NSCLC
  GI50: 6.9 µM
  TGI: > 100 µM
DU-145 prostate
  GI50: > 100 µM
  TGI: > 100 µM

## CCOc1nc(-c2ccccc2)cc2c(O)c(-c3nnco3)[nH]c(=O)c12
SK-MEL-2 melanoma
  GI50: 9.4 µM
  TGI: > 46.9 µM
HT29 colon
  GI50: > 100 µM
  TGI: > 100 µM
SK-OV-3 ovarian
  GI50: 10 µM
  TGI: 75.9 µM
OVCAR-8 ovarian
  GI50: 4.24 µM
  TGI: > 100 µM
HOP-62 NSCLC
  GI50: 4.12 µM
  TGI: > 100 µM
NCI-H522 lung
  GI50: 3.09 µM
  TGI: > 100 µM
SNB-19 CNS
  GI50: 6.13 µM
  TGI: > 62.4 µM
A549 NSCLC
  GI50: 4.55 µM
  TGI: > 100 µM
DU-145 prostate
  GI50: 5.3 µM
  TGI: > 100 µM

## COC(=O)c1cc2c(cc1O)[C@@H](NC(C)=O)CCc1cc(OC)c(OC)c(OC)c1-2
SK-MEL-2 melanoma
  GI50: < 0.01 µM
  TGI: 0.0371 µM
HT29 colon
  GI50: 0.0206 µM
  TGI: 0.201 µM and 0.0554 µM
SK-OV-3 ovarian
  GI50: 0.0831 µM
  TGI: > 100 µM
OVCAR-8 ovarian
  GI50: 0.0404 µM
NCI-H522 lung
  TGI: 0.19 µM
SNB-19 CNS
  GI50: 0.0355 µM
  TGI: > 100 µM
A549 NSCLC
  GI50: 0.0313 µM
  TGI: > 100 µM
DU-145 prostate
  TGI: > 100 µM

## C/C(=C\CCc1ccoc1)CC/C=C(\C)CCCC1=CC(=O)OC1
SK-MEL-2 melanoma
  GI50: 9.35 µM
  TGI: 22.6 µM
SK-OV-3 ovarian
  GI50: 12.6 µM
  TGI: 50.4 µM
OVCAR-8 ovarian
  GI50: 5.11 µM
  TGI: 29.8 µM
HOP-62 NSCLC
  GI50: 16 µM
  TGI: 55 µM
NCI-H522 lung
  GI50: 5.45 µM
  TGI: 22.2 µM
SNB-19 CNS
  GI50: 17.7 µM
  TGI: > 100 µM
A549 NSCLC
  GI50: 4.37 µM
  TGI: > 100 µM
DU-145 prostate
  GI50: 24.8 µM
  TGI: > 100 µM

## Ic1ccc(Nc2nc3nonc3nc2Nc2ccc(I)cc2)cc1
SK-MEL-2 melanoma
  GI50: 0.143 µM
  TGI: 0.692 µM
HT29 colon
  GI50: 0.265 µM
  TGI: > 100 µM
SK-OV-3 ovarian
  GI50: 0.23 µM
  TGI: 0.741 µM
OVCAR-8 ovarian
  GI50: 0.351 µM
  TGI: > 100 µM
HOP-62 NSCLC
  GI50: 0.302 µM
  TGI: 0.961 µM
EKVX NSCLC
  GI50: 0.245 µM
  TGI: > 100 µM
SNB-19 CNS
  GI50: 0.324 µM
  TGI: > 100 µM
A549 NSCLC
  GI50: 0.282 µM
  TGI: > 100 µM
DU-145 prostate
  GI50: 0.365 µM
  TGI: > 100 µM

## Cn1cc(C2=C(c3ccc4ccccc4c3)C(=O)NC2=O)c2ccccc21
SK-MEL-2 melanoma
  GI50: > 25 µM
  TGI: > 25 µM
HT29 colon
  GI50: 9.87 µM
  TGI: > 25 µM
SK-OV-3 ovarian
  GI50: > 25 µM
  TGI: > 25 µM
OVCAR-8 ovarian
  GI50: > 25 µM
  TGI: > 25 µM
HOP-62 NSCLC
  GI50: > 25 µM
  TGI: > 25 µM
NCI-H522 lung
  GI50: 12.1 µM
  TGI: > 25 µM
SNB-19 CNS
  GI50: > 25 µM
  TGI: > 25 µM
A549 NSCLC
  GI50: > 21.8 µM
  TGI: > 25 µM
DU-145 prostate
  GI50: > 25 µM
  TGI: > 25 µM

## CC(C)=C[C@@H]1C[C@H](C)[C@H]2CC[C@H](C)C3=C2[C@](O)(OC3=O)[C@]1(C)O
SK-MEL-2 melanoma
  GI50: > 100 µM
  TGI: > 100 µM
HT29 colon
  GI50: > 100 µM
  TGI: > 100 µM
SK-OV-3 ovarian
  GI50: > 100 µM
  TGI: > 100 µM
OVCAR-8 ovarian
  GI50: > 100 µM
  TGI: > 100 µM
NCI-H522 lung
  GI50: > 100 µM
  TGI: > 100 µM
EKVX NSCLC
  GI50: > 100 µM
  TGI: > 100 µM
SNB-19 CNS
  GI50: > 100 µM
  TGI: > 100 µM
A549 NSCLC
  GI50: > 100 µM
  TGI: > 100 µM
DU-145 prostate
  GI50: > 100 µM
  TGI: > 100 µM

## CCCCCCCCCC/C=C/CC(=O)SCCNC(=O)CCNC(=O)[C@@H](O)C(C)(C)COP(=O)(O)OP(=O)(O)OCC1OC(n2cnc3c(N)ncnc32)C(O)C1OP(=O)(O)O (some centres not stated)
HT29 colon
  TGI: > 10 µM
SK-OV-3 ovarian
  TGI: > 10 µM
OVCAR-8 ovarian
  TGI: > 10 µM
HOP-62 NSCLC
  TGI: > 10 µM
EKVX NSCLC
  TGI: > 10 µM
SNB-19 CNS
  TGI: > 10 µM
A549 NSCLC
  TGI: > 10 µM
DU-145 prostate
  TGI: > 10 µM

## CC/C(=C(/c1ccc(OCCN(C)C)cc1)c1ccc(OC(=O)CCCCC(=O)c2c(C)[nH]c(/C=C3\N=C(c4ccc[nH]4)C=C3OC)c2C)cc1)c1ccccc1
SK-MEL-2 melanoma
  GI50: 16.7 µM
  TGI: 33.5 µM
HT29 colon
  GI50: 2.99 µM
  TGI: 14.7 µM
SK-OV-3 ovarian
  GI50: 14.1 µM
  TGI: 27 µM
OVCAR-8 ovarian
  GI50: 6.55 µM
  TGI: 19.9 µM
HOP-62 NSCLC
  GI50: 12.3 µM
  TGI: 24.7 µM
NCI-H522 lung
  GI50: 3.59 µM
  TGI: 14.3 µM
SNB-19 CNS
  GI50: 12.8 µM
  TGI: 27.4 µM
A549 NSCLC
  GI50: 3.92 µM
  TGI: 15.7 µM
DU-145 prostate
  GI50: 7.73 µM
  TGI: 21.1 µM
